From patent publication US9212152B2, “Process for the preparation of N-hydroxy-1-(1-alkyl-1H-tetrazol-5-yl)-1-phenylmethanimine derivatives” (BAYER INTELLECTUAL PROPERTY GMBH, priority 2012, dated 2015)

Assay: log P determination
Format: physicochemical
Conditions: pH 2.7

Cn1nnnc1C(=NO)c1ccccc1 [Example 1, sodium {[(1-methyl-1H-tetrazol-5-yl)(phenyl)methylene]amino}oxidanide]
logP: 1.45
